Assay results from patent US20090270373A1, “TREATMENT OF DOWN SYNDROM WITH BENZODIAZEPINE RECEPTOR ANTAGONISTS” (Cypress Biosciences, Inc., priority 2008, published 2009).

Experiments:
Ts65Dn mice [1] = assay: Modified spontaneous alternation task (T-maze) in Ts65Dn mice (paper Examples 1 and 2); format: in vivo, mouse; conditions: 5 to 30 doses, 3 mg/kg in milk orally or 1 mg/kg i.p.
Method: (§1) Flumazenil may also be tested for its effects on declarative memory in the novel object recognition test and in a modified spontaneous alternation task. Wild-type and Ts65Dn mice may be administered flumazenil (3 mg/kg in milk via voluntary oral feeding or 1 mg/kg i.p.). The wild-type and Ts65Dn mice are administered from 5 to 30 doses of milk or milk-flumazenil (or saline or flumazenil solution i.p.). The mice are then subjected to two repetitions of novel object recognition testing or three daily T-maze sessions at the tail end of the treatment regimen. […] Comparison of treated and untreated Ts65Dn mice will provide controls for any possible arm bias in the spontaneous alternation task.
as §1, with “Bretazenil may” for “Flumazenil may”, “administered bretazenil” for “administered flumazenil”

WT and Ts65Dn mice = assay: Open-field locomotor assay (LMA), 30 min session; format: in vivo, mouse; conditions: WT and Ts65Dn mice
Method: (§2) Following baseline determinations and group assignments, WT and Ts65Dn mice received intraperitoneal (i.p.) injections once/day (08:00) for the two-week duration of the drug treatment regimen (FIG. 1). Drugs were dissolved in physiological saline. Two drops of Tween 80 were used to facilitate solution formation for flumazenil. Picrotoxin was initially made up at 50× concentration in 20% ethanol and then diluted down to a […] solution with 0.4% ETOH in saline. Doses of drugs were based on previous behavioral research in mice (1 mg/kg for PTX and 10 mg/kg for flumazenil). Injections were given in a volume of 10 ml/kg. A vehicle control was run along side the treatment groups (0.4% ETOH in saline).
(§3) FIG. 1 graphically depicts the protocol. After habituation to the animal facility, mice were tested for baseline behaviors in the open-field locomotor assay (LMA)(30 min session) and the novel object recognition assay. Primary experimental groups were divided by genotype (Ts65Dn mice and wild-type control littermates). These two groups were further divided into drug treatments (vehicle, PTX and flumazenil) with a targeted n-size of 8 mice/group (24 WT and 24 Ts65Dn mice total). The group assignments were made in a semi-random process due to constraints in animal availability (staggered shipping) and choice of initial treatment groups (e-mail documentation between Bilsky laboratory and Cypress Bioscience on file). Daily morning injections began on Day 1 and went through the morning of Day 14. On Days 7/8 and 14/15 (13:00) mice were tested in the behavioral assay. Mice were kept for an additional two weeks and re-tested on Days 21/22 and 28/29 to assess the duration of the drug treatment effect.
General levels of arousal, locomotor activity and anxiety were assessed using an automated open-field activity monitoring system (Coulbourn Instruments with TruScan software). The open field test that were run were fully automated assays that quantified many different aspects and patterns of movement, including total distance traveled, time spent moving, rearing, and various stereotypic patterns of activity. The software calculates the time spent in the middle portions of the open field versus the outer zones alongside the outside walls. These variables can be used as one measure of general anxiety levels.
Mice were placed into an open field (26 cm×26 cm) in a brightly lit room. Two sensor rings (x-y plane and a vertical z plane) generate an array of infrared beams that surround the chamber. The pattern of beam breaks was recorded and the data fed into a personal computer. The TruScan software interpreted the beam breaks to calculate the movement variables and patterns of activity, with a temporal resolution of 100 msec. A 30 minutes session was used for assessment of the mice on Day 0 (Baseline) and then on Days 1, 7, 14, 21 and 28. Data were exported into an Excel spreadsheet, graphed and analyzed using parametric and non-parametric statistics.

WT mice = assay: Novel object recognition assay (Discrimination Index) in WT mice; format: in vivo, mouse
Method: as §2, §3
(§4) The novel object recognition task is based on the innate tendency of rodents to differentially explore novel objects over familiar ones. The task is well validated for evaluating rodent memory and the effects of drug treatments on learning/memory performance.
(§5) Mice were trained and tested once per week, each experimental session separated by a one-week interval. Mice were submitted to daily handling sessions, and given an opportunity to habituate to an open field arena (48 cm×48 cm wide×25 cm), where they were exposed to two different objects (complex protocol), during a 5-minute training session. Objects were made from various non-porous materials that differ in shape and color. Mice were unable to climb onto the objects and the objects were generally consistent in height and volume, and were roughly symmetrical on a horizontal plane. Objects were positioned in two corners of the apparatus. To control for odor cues, the open field arena and the objects are thoroughly cleaned with 90% ethanol, dried, and ventilated for a few minutes between mice.
(§6) A 5-minute testing session was conducted 24 h after training. Here, the mice were presented with the object they had explored the previous day, and a new item (the objects being alternatively positioned in one corner or another in a balanced fashion within a given week, and from one week to another). […]

benzodiazepine receptors = conditions: cited from earlier work
Ts65Dn mice [2] = assay: Novel object recognition assay (Discrimination Index) in Ts65Dn mice, model of Down syndrome; format: in vivo, mouse
Method: as §2, §3, §4, §5, §6

CCOC(=O)c1ncn2c1CN(C)C(=O)c1cc(F)ccc1-2 [flumazenil, 8-fluoro-5,6-dihydro-5-methyl-6-oxo-4H-imidazo[1,5-a]benzodiazepine-3-carboxylic acid ethyl ester]
spontaneous alternation (Ts65Dn mice [1]): normal levels of alternation | LMA vertical rearing (WT and Ts65Dn mice; PTX during drug administration phases, flumazenil over the 4 week testing regimen): least effect | LMA marginal distance traveled (WT and Ts65Dn mice; across sessions, PTX 1 mg/kg, flumazenil 10 mg/kg i.p.): very little habituation across sessions | Discrimination Index (DI) (WT mice; Week 2 of drug therapy, versus vehicle): no differences | Discrimination Index (DI) (WT mice; Week 4 (2 weeks post dosing)): slight negative DI | antagonism of the effects of diazepam (benzodiazepine receptors; given orally or intravenously): effectively antagonizes | activity at oral dosing (benzodiazepine receptors; oral 30 to 100 mg, normal adult human subjects): partial benzodiazepine agonist | Discrimination Index (DI) (Ts65Dn mice [2]; Week 1 of drug therapy, PTX 1 mg/kg, flumazenil 10 mg/kg i.p.): positive effects | Discrimination Index (DI) (Ts65Dn mice [2]; Week 2 of drug therapy): positive effects | effect in the object recognition assay as compared to vehicle (Ts65Dn mice [2]; flumazenil 10 mg/kg i.p., conclusion): beneficial effect
